What follows are compounds tested against D(1A) dopamine receptor (Bos taurus, UniProt Q95136) (assay: In vitro displacement of [3H]- SCH 23390 from the dopamine receptor D1 of bovine striatal membrane).
Chain of D(1A) dopamine receptor (Q95136 whole entry): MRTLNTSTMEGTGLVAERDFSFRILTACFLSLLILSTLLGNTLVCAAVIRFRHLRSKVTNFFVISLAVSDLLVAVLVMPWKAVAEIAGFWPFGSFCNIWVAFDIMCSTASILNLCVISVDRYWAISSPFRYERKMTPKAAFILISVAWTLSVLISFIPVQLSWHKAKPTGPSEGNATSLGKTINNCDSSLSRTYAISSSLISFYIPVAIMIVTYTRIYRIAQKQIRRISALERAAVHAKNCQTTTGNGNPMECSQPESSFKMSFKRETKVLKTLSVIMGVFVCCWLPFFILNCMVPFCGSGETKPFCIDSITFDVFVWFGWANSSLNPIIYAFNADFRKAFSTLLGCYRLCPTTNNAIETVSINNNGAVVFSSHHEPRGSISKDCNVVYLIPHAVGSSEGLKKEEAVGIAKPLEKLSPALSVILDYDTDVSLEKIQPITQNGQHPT
With `COc1ccc(Br)cc1-c1ncc(CNC[C@@H]2CCN(Cc3ccccc3)C2)[nH]1` the Ki was 8900 nM. Compound `COc1ccc(Br)cc1-c1nc(CNC[C@@H]2CCN(Cc3ccccc3)C2)co1` has a Ki of 3500 nM. Compound `c1ccc(CN2CCC(NCc3coc(-c4ccccc4)n3)CC2)cc1` has a Ki of 30000 nM. Compound `Oc1ccc(Br)cc1-c1nc(CN2CCN(c3ccccc3)CC2)co1` has a Ki of 17500 nM. `COc1ccc(Br)cc1-c1nc(CNCCC2CCN(Cc3ccccc3)C2)co1` (stereo not given) gave a Ki of 6600 nM. With `c1ccc(-c2nc(CN3CCN(c4ccccc4)CC3)cs2)cc1` the Ki was 19500 nM. `c1ccc(CN2CCN(Cc3coc(-c4ccccc4)n3)CC2)cc1` showed a Ki of 72000 nM. With `COc1ccc(Br)cc1-c1nc(CNCC[C@@H]2CCN(Cc3ccccc3)C2)co1` the Ki was 8950 nM. `c1ccc(CN2CCC(NCc3csc(-c4ccccc4)n3)CC2)cc1` was tested, and the Ki was 6800 nM. `COc1ccc(Br)cc1-c1nc(CN2CCN(Cc3ccccc3)CC2)co1` gave a Ki of 15500 nM. Work on `COc1ccc(Br)cc1-c1nc(CNC[C@@H]2CCN(Cc3ccccc3)C2)cs1` [listing 1 of 2 here] yielded a Ki of 4000 nM. In the case of `COc1ccc(Br)cc1-c1nc(CN[C@@H]2CCN(Cc3ccccc3)C2)co1`, the Ki is reported as 16000 nM. For `COc1ccc(Br)cc1-c1nc(CNC[C@@H]2CCN(Cc3ccccc3)C2)cs1` [listing 2 of 2 here], the Ki was 4950 nM.

These compounds were tested against T1, D(4) dopamine receptor (Homo sapiens, UniProt P21917) (assay: In vitro displacement of [3H]spiperone from the recombinant human dopamine receptor D4 expressed in CHO cells).
T1 sequence (P21917 whole entry): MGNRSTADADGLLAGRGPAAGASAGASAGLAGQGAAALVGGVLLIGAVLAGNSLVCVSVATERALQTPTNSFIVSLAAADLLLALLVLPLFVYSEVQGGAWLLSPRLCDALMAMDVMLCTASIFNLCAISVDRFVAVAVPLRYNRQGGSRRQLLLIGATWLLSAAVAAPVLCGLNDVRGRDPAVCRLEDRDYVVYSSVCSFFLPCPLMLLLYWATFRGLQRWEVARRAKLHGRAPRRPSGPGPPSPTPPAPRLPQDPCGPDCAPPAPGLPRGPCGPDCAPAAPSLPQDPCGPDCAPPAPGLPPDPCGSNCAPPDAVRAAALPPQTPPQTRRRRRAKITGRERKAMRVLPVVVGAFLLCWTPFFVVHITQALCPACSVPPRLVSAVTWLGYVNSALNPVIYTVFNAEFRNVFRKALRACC
Format: cell-based
Work on `COc1ccc(Br)cc1-c1ncc(CNC[C@@H]2CCN(Cc3ccccc3)C2)[nH]1` yielded a Ki of 1110 nM. In the case of `COc1ccc(Br)cc1-c1nc(CNC[C@@H]2CCN(Cc3ccccc3)C2)co1`, the Ki is reported as 11 nM. `c1ccc(CN2CCC(NCc3coc(-c4ccccc4)n3)CC2)cc1` was tested, and the Ki was 350 nM. With `Oc1ccc(Br)cc1-c1nc(CN2CCN(c3ccccc3)CC2)co1` the Ki was 580 nM. `COc1ccc(Br)cc1-c1nc(CNCCC2CCN(Cc3ccccc3)C2)co1` (stereo not given) showed a Ki of 150 nM. With `c1ccc(-c2nc(CN3CCN(c4ccccc4)CC3)cs2)cc1` the Ki was 450 nM. For `c1ccc(CN2CCN(Cc3coc(-c4ccccc4)n3)CC2)cc1`, the Ki was 1450 nM. `COc1ccc(Br)cc1-c1nc(CNCC[C@@H]2CCN(Cc3ccccc3)C2)co1` was tested, and the Ki was 170 nM. `c1ccc(CN2CCC(NCc3csc(-c4ccccc4)n3)CC2)cc1` was tested, and the Ki was 53 nM. With `COc1ccc(Br)cc1-c1nc(CN2CCN(Cc3ccccc3)CC2)co1` the Ki was 710 nM. `COc1ccc(Br)cc1-c1nc(CNC[C@@H]2CCN(Cc3ccccc3)C2)cs1` [listing 1 of 2 here] was tested, and the Ki was 150 nM. Compound `COc1ccc(Br)cc1-c1nc(CN[C@@H]2CCN(Cc3ccccc3)C2)co1` has a Ki of 510 nM. Work on `COc1ccc(Br)cc1-c1nc(CNC[C@@H]2CCN(Cc3ccccc3)C2)cs1` [listing 2 of 2 here] yielded a Ki of 170 nM.

Each compound was assayed against T2, D(2) dopamine receptor (Homo sapiens, UniProt P14416) (assay: In vitro displacement of [3H]spiperone from the recombinant human dopamine receptor D2L stably expressed in CHO cells).
T2 sequence (P14416 whole entry): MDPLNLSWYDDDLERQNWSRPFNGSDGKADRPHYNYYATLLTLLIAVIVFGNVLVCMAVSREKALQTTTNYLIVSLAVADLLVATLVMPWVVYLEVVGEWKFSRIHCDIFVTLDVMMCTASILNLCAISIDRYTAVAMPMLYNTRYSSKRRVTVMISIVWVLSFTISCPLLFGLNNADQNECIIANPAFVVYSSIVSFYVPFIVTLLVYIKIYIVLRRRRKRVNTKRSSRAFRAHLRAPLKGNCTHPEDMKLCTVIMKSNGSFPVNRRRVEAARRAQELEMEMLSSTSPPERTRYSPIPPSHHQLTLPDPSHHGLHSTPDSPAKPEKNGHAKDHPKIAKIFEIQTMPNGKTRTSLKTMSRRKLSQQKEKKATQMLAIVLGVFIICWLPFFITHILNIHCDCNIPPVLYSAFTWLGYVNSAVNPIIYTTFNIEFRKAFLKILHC
Format: cell-based
For `COc1ccc(Br)cc1-c1ncc(CNC[C@@H]2CCN(Cc3ccccc3)C2)[nH]1`, the Ki was 6250 nM. `COc1ccc(Br)cc1-c1nc(CNC[C@@H]2CCN(Cc3ccccc3)C2)co1` was tested, and the Ki was 320 nM. `c1ccc(CN2CCC(NCc3coc(-c4ccccc4)n3)CC2)cc1` showed a Ki of 14000 nM. For `Oc1ccc(Br)cc1-c1nc(CN2CCN(c3ccccc3)CC2)co1`, the Ki was 6650 nM. `COc1ccc(Br)cc1-c1nc(CNCCC2CCN(Cc3ccccc3)C2)co1` (stereo not given) gave a Ki of 510 nM. `c1ccc(-c2nc(CN3CCN(c4ccccc4)CC3)cs2)cc1` was tested, and the Ki was 2300 nM. `c1ccc(CN2CCN(Cc3coc(-c4ccccc4)n3)CC2)cc1` showed a Ki of 27500 nM. With `COc1ccc(Br)cc1-c1nc(CNCC[C@@H]2CCN(Cc3ccccc3)C2)co1` the Ki was 1070 nM. Work on `c1ccc(CN2CCC(NCc3csc(-c4ccccc4)n3)CC2)cc1` yielded a Ki of 23000 nM. Compound `COc1ccc(Br)cc1-c1nc(CN2CCN(Cc3ccccc3)CC2)co1` has a Ki of 1500 nM. `COc1ccc(Br)cc1-c1nc(CNC[C@@H]2CCN(Cc3ccccc3)C2)cs1` [listing 1 of 2 here] gave a Ki of 185 nM. `COc1ccc(Br)cc1-c1nc(CN[C@@H]2CCN(Cc3ccccc3)C2)co1` showed a Ki of 8250 nM. `COc1ccc(Br)cc1-c1nc(CNC[C@@H]2CCN(Cc3ccccc3)C2)cs1` [listing 2 of 2 here] showed a Ki of 420 nM.

What follows are compounds tested against T2, D(2) dopamine receptor (assay: In vitro displacement of [3H]spiperone from the recombinant human dopamine receptor D2 short form expressed in CHO cells).
Format: cell-based
`COc1ccc(Br)cc1-c1ncc(CNC[C@@H]2CCN(Cc3ccccc3)C2)[nH]1` showed a Ki of 2750 nM. For `COc1ccc(Br)cc1-c1nc(CNC[C@@H]2CCN(Cc3ccccc3)C2)co1`, the Ki was 245 nM. In the case of `c1ccc(CN2CCC(NCc3coc(-c4ccccc4)n3)CC2)cc1`, the Ki is reported as 8650 nM. In the case of `Oc1ccc(Br)cc1-c1nc(CN2CCN(c3ccccc3)CC2)co1`, the Ki is reported as 4400 nM. Compound `COc1ccc(Br)cc1-c1nc(CNCCC2CCN(Cc3ccccc3)C2)co1` (stereo not given) has a Ki of 310 nM. Compound `c1ccc(-c2nc(CN3CCN(c4ccccc4)CC3)cs2)cc1` has a Ki of 1060 nM. `c1ccc(CN2CCN(Cc3coc(-c4ccccc4)n3)CC2)cc1` showed a Ki of 21500 nM. `COc1ccc(Br)cc1-c1nc(CNCC[C@@H]2CCN(Cc3ccccc3)C2)co1` showed a Ki of 1100 nM. In the case of `c1ccc(CN2CCC(NCc3csc(-c4ccccc4)n3)CC2)cc1`, the Ki is reported as 13500 nM. In the case of `COc1ccc(Br)cc1-c1nc(CN2CCN(Cc3ccccc3)CC2)co1`, the Ki is reported as 790 nM. Compound `COc1ccc(Br)cc1-c1nc(CNC[C@@H]2CCN(Cc3ccccc3)C2)cs1` [listing 1 of 2 here] has a Ki of 92 nM. In the case of `COc1ccc(Br)cc1-c1nc(CN[C@@H]2CCN(Cc3ccccc3)C2)co1`, the Ki is reported as 6600 nM. Work on `COc1ccc(Br)cc1-c1nc(CNC[C@@H]2CCN(Cc3ccccc3)C2)cs1` [listing 2 of 2 here] yielded a Ki of 280 nM.

The compounds below were run against D(3) dopamine receptor (Homo sapiens, UniProt P35462) (assay: In vitro displacement of [3H]spiperone from the cloned human dopamine receptor D3 stably expressed in CHO cells).
Chain of D(3) dopamine receptor (P35462 whole entry): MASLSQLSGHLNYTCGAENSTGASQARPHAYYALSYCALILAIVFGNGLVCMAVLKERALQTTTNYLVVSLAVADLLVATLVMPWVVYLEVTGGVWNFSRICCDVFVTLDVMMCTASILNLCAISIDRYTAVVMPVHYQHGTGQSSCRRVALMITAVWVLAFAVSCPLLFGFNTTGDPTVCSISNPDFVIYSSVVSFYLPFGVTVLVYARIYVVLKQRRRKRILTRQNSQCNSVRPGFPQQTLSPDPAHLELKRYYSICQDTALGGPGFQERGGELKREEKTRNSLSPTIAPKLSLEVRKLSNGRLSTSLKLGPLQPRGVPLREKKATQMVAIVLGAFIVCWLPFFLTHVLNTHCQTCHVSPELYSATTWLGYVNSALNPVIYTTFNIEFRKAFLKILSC
Format: cell-based
`COc1ccc(Br)cc1-c1ncc(CNC[C@@H]2CCN(Cc3ccccc3)C2)[nH]1` showed a Ki of 1300 nM. `COc1ccc(Br)cc1-c1nc(CNC[C@@H]2CCN(Cc3ccccc3)C2)co1` showed a Ki of 65 nM. `c1ccc(CN2CCC(NCc3coc(-c4ccccc4)n3)CC2)cc1` was tested, and the Ki was 6100 nM. `Oc1ccc(Br)cc1-c1nc(CN2CCN(c3ccccc3)CC2)co1` was tested, and the Ki was 7600 nM. `COc1ccc(Br)cc1-c1nc(CNCCC2CCN(Cc3ccccc3)C2)co1` (stereo not given) was tested, and the Ki was 75 nM. `c1ccc(-c2nc(CN3CCN(c4ccccc4)CC3)cs2)cc1` gave a Ki of 2050 nM. `c1ccc(CN2CCN(Cc3coc(-c4ccccc4)n3)CC2)cc1` showed a Ki of 8400 nM. With `COc1ccc(Br)cc1-c1nc(CNCC[C@@H]2CCN(Cc3ccccc3)C2)co1` the Ki was 120 nM. Compound `c1ccc(CN2CCC(NCc3csc(-c4ccccc4)n3)CC2)cc1` has a Ki of 2300 nM. With `COc1ccc(Br)cc1-c1nc(CN2CCN(Cc3ccccc3)CC2)co1` the Ki was 1050 nM. Work on `COc1ccc(Br)cc1-c1nc(CNC[C@@H]2CCN(Cc3ccccc3)C2)cs1` [listing 1 of 2 here] yielded a Ki of 220 nM. With `COc1ccc(Br)cc1-c1nc(CN[C@@H]2CCN(Cc3ccccc3)C2)co1` the Ki was 1850 nM. `COc1ccc(Br)cc1-c1nc(CNC[C@@H]2CCN(Cc3ccccc3)C2)cs1` [listing 2 of 2 here] showed a Ki of 115 nM.
